Earlier results on one compound are cited in patent US20220160665A1, “COMPOSITION IN MICRO-ENCAPSULATED FORM, BASED ON N-BUTYRICACID OR DERIVATIVES THEREOF, FOR TREATING CROHNS DISEASE OR ULCERATIVE RECTAL COLITIS” (SILA S.R.L., priority 2019, published 2022).

Molecules are shown by their SMILES.

The conditions of the data set: solid granular form, white-coloured powder, commercially available.

In the case of `CCCC(=O)[O-].[Na+]` [sodium salt of the n-butyric acid], the “temperature up to which stable” value was “up to 250 °C”.
